Values quoted from earlier work as cited in PMC10674484, “A Spectroscopic and Molecular Dynamics Study on the Aggregation Properties of a Lipopeptide Analogue of Liraglutide, a Therapeutic Peptide against Diabetes Type 2” (Molecules, 2023).
Where two headings read alike, the source gives them in different places.

Tests used:
albumin = test system: albumin
From the text: (§1) From this point of view, it is interesting to compare the aggregation properties and binding affinity to serum proteins of Liraglutide, a once daily administration drug, and Semaglutide, a one weekly administration drug.

[1] = From the text: Liraglutide (LG), a lipidated glucagon-like peptide 1 derivative, more than a decade ago became a once daily leading drug in the therapy of diabetes and obesity. However, despite its prominent role in the market, LG pharmacokinetics is still under scrutiny. Former studies have shown that LG complexation with human serum albumin (HSA) is one of the factors affecting LG circulation time and catabolism. Moreover, it has been shown that the relatively large size of HSA protects LG against proteolytic degradation or rapid renal filtration, resulting in a long half-life in human ...
[2] = remark: listed apart in the source
From the text: as §1

## Semaglutide
albumin
  affinity for albumin compared with Liraglutide: markedly higher

## Liraglutide
[1]; humans, subcutaneous administration
  half-life: 11 to 15 h
[1]; pH 6.4
  number of LP units per aggregate: twelve
[1]; pH 8
  number of LP units per aggregate: eight
[2]
  cac compared with Semaglutide: lower than the latter
